Results taken from patent US20140107100A1, “Benzoxazepines as Inhibitors of PI3K/mTOR and Methods of Their Use and Manufacture” (EXELIXIS, INC., priority 2010, published 2014).

Biological target: mTOR/GbL/Raptor (mTORC1) (Homo sapiens, UniProt P42345)
Assay: mTOR/GbL/Raptor (mTORC1) ELISA assay, phosphorylation of 4E-BP1
Type: biochemical
Conditions: 0.2 nM mTORC1, 40 uM ATP, 50 nM NHis-tagged 4E-BP1, 120 minutes; read-out: IC50 in this assay (mTORC1 ELISA)
Outline: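 Phospho-4E-BP1 was quantified by luminescent ELISA (anti-phospho-4E-BP1 IgG, HRP-tagged secondary) after capture of the His-tagged substrate on Ni-chelate plates.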

IC50 [nM]	Structure (SMILES)
100 to 500	COc1ccc(-c2cc(C)c3c(c2)CN(c2nc(N)nc(C)c2C(C)C)CCO3)cc1OC [Compound 78, 4-{7-[3,4-bis(methyloxy)phenyl]-9-methyl-2,3-dihydro-1,4-benzoxazepin-4(5H)-yl}-6-methyl-5-(1-methylethyl)pyrimidin-2-amine]
100 to 500	COc1cncc(-c2cc(C)c3c(c2)CN(c2nc(N)nc(C)c2C(C)C)CCO3)c1 [Compound 79, 4-methyl-5-(1-methylethyl)-6-{9-methyl-7-[5-(methyloxy)pyridin-3-yl]-2,3-dihydro-1,4-benzoxazepin-4(5H)-yl}pyrimidin-2-amine]
≤ 100	Cc1cc(-c2cn[nH]c2)cc2c1OCCN(c1nc(N)nc(C)c1C(C)C)C2 [Compound 80, 4-methyl-5-(1-methylethyl)-6-[9-methyl-7-(1H-pyrazol-4-yl)-2,3-dihydro-1,4-benzoxazepin-4(5H)-yl]pyrimidin-2-amine]
100 to 500	Cc1cc(-c2cnc(N)nc2)cc2c1OCCN(c1nc(N)nc(C)c1C(C)C)C2 [Compound 81, 4-[7-(2-aminopyrimidin-5-yl)-9-methyl-2,3-dihydro-1,4-benzoxazepin-4(5H)-yl]-6-methyl-5-(1-methylethyl)pyrimidin-2-amine]
100 to 500	COc1ncc(-c2cc(C)c3c(c2)CN(c2nc(N)nc(C)c2C(C)C)CCO3)cn1 [Compound 82, 4-methyl-5-(1-methylethyl)-6-{9-methyl-7-[2-(methyloxy)pyrimidin-5-yl]-2,3-dihydro-1,4-benzoxazepin-4(5H)-yl}pyrimidin-2-amine]
100 to 500	Cc1cc(-c2ccnc(F)c2)cc2c1OCCN(c1nc(N)nc(C)c1C(C)C)C2 [Compound 83, 4-[7-(2-fluoropyridin-4-yl)-9-methyl-2,3-dihydro-1,4-benzoxazepin-4(5H)-yl]-6-methyl-5-(1-methylethyl)pyrimidin-2-amine]
≤ 100	Cc1cc(-c2cnc(N)s2)cc2c1OCCN(c1nc(N)nc(C)c1C(C)C)C2 [Compound 84, 4-[7-(2-amino-1,3-thiazol-5-yl)-9-methyl-2,3-dihydro-1,4-benzoxazepin-4(5H)-yl]-6-methyl-5-(1-methylethyl)pyrimidin-2-amine]
≤ 100	CCc1nc(CN(C)C)nc(N2CCOc3c(C)cc(-c4cnc5sc(N)nc5c4)cc3C2)c1CC [Compound 85, 6-(4-{2-[(dimethylamino)methyl]-5,6-diethylpyrimidin-4-yl}-9-methyl-2,3,4,5-tetrahydro-1,4-benzoxazepin-7-yl)[1,3]thiazolo[5,4-b]pyridin-2-amine]
≤ 100	Cc1cc(-c2cnc3sc(N)nc3c2)cc2c1OCCN(c1nc(S(C)(=O)=O)nc(C)c1C(C)C)C2 [Compound 86, 6-{9-methyl-4-[6-methyl-5-(1-methylethyl)-2-(methylsulfonyl)pyrimidin-4-yl]-2,3,4,5-tetrahydro-1,4-benzoxazepin-7-yl}[1,3]thiazolo[5,4-b]pyridin-2-amine]
≤ 100	Cc1cc(-c2cnc3sc(N)nc3c2)cc2c1OCCN(c1ncnc(C)c1C(C)C)C2 [Compound 87, 6-{9-methyl-4-[6-methyl-5-(1-methylethyl)pyrimidin-4-yl]-2,3,4,5-tetrahydro-1,4-benzoxazepin-7-yl}[1,3]thiazolo[5,4-b]pyridin-2-amine]
≤ 100	CCc1nc(CN(C)C)nc(N2CCOc3c(C)cc(-c4cnc5sc(N)nc5c4)cc3C2)c1C(C)C [Compound 88, 6-(4-{2-[(dimethylamino)methyl]-6-ethyl-5-(1-methylethyl)pyrimidin-4-yl}-9-methyl-2,3,4,5-tetrahydro-1,4-benzoxazepin-7-yl)[1,3]thiazolo[5,4-b]pyridin-2-amine]
≤ 100	Cc1cc(-c2cnc3sc(N)nc3c2)cc2c1OCCN(c1nc(CNC(C)(C)C)nc(C)c1C(C)C)C2 [Compound 90, 6-{4-[2-{[(1,1-dimethylethyl)amino]methyl}-6-methyl-5-(1-methylethyl)pyrimidin-4-yl]-9-methyl-2,3,4,5-tetrahydro-1,4-benzoxazepin-7-yl}[1,3]thiazolo[5,4-b]pyridin-2-amine]
≤ 100	Cc1cc(-c2cnc3sc(N)nc3c2)cc2c1OCCN(c1nc(CN3CCC(F)(F)C3)nc(C)c1C(C)C)C2 [Compound 91, 6-(4-{2-[(3,3-difluoropyrrolidin-1-yl)methyl]-6-methyl-5-(1-methylethyl)pyrimidin-4-yl}-9-methyl-2,3,4,5-tetrahydro-1,4-benzoxazepin-7-yl)[1,3]thiazolo[5,4-b]pyridin-2-amine]
≤ 100	Cc1cc(-c2cnc3sc(N)nc3c2)cc2c1OCCN(c1nc(CN3CCCC3)ncc1C(C)C)C2 [Compound 92, 6-{9-methyl-4-[5-(1-methylethyl)-2-(pyrrolidin-1-ylmethyl)pyrimidin-4-yl]-2,3,4,5-tetrahydro-1,4-benzoxazepin-7-yl}[1,3]thiazolo[5,4-b]pyridin-2-amine]
≤ 100	COCc1nc(C)c(C(C)C)c(N2CCOc3c(C)cc(-c4cnc5sc(N)nc5c4)cc3C2)n1 [Compound 93, 6-(9-methyl-4-{6-methyl-5-(1-methylethyl)-2-[(methyloxy)methyl]pyrimidin-4-yl}-2,3,4,5-tetrahydro-1,4-benzoxazepin-7-yl)[1,3]thiazolo[5,4-b]pyridin-2-amine]
≤ 100	Cc1cc(-c2cnc3sc(N)nc3c2)cc2c1OCCN(c1nc(C(O)C(F)(F)F)nc(C)c1C(C)C)C2 (stereo not shown) [Compound 94, 1-{4-[7-(2-amino[1,3]thiazolo[5,4-b]pyridin-6-yl)-9-methyl-2,3-dihydro-1,4-benzoxazepin-4(5H)-yl]-6-methyl-5-(1-methylethyl)pyrimidin-2-yl}-2,2,2-trifluoroethanol]
≤ 100	Cc1cc(-c2cnc3sc(N)nc3c2)cc2c1OCCN(c1nc(C(C)O)nc(C)c1C(C)C)C2 (stereo not shown) [Compound 98, 1-{4-[7-(2-amino[1,3]thiazolo[5,4-b]pyridin-6-yl)-9-methyl-2,3-dihydro-1,4-benzoxazepin-4(5H)-yl]-6-methyl-5-(1-methylethyl)pyrimidin-2-yl}ethanol]
≤ 100	Cc1cc(-c2cnc3sc(N)nc3c2)cc2c1OCCN(c1nc([S+](C)[O-])nc(C)c1C(C)C)C2 (stereo not shown) [Compound 99, 6-{9-methyl-4-[6-methyl-5-(1-methylethyl)-2-(methylsulfinyl)pyrimidin-4-yl]-2,3,4,5-tetrahydro-1,4-benzoxazepin-7-yl}[1,3]thiazolo[5,4-b]pyridin-2-amine]
100 to 500	Cc1cc(-c2cnc3sc(N)nc3c2)cc2c1OCCN(c1nc(CN(C)C(C)(C)C)nc(C)c1C(C)C)C2 [Compound 100, 6-{4-[2-{[(1,1-dimethylethyl)(methyl)amino]methyl}-6-methyl-5-(1-methylethyl)pyrimidin-4-yl]-9-methyl-2,3,4,5-tetrahydro-1,4-benzoxazepin-7-yl}[1,3]thiazolo[5,4-b]pyridin-2-amine]
100 to 500	Cc1cc(-c2cnc3sc(N)nc3c2)cc2c1OCCN(c1nc(CNCC(F)(F)F)nc(C)c1C(C)C)C2 [Compound 103, 6-{9-methyl-4-[6-methyl-5-(1-methylethyl)-2-{[(2,2,2-trifluoroethyl)amino]methyl}pyrimidin-4-yl]-2,3,4,5-tetrahydro-1,4-benzoxazepin-7-yl}[1,3]thiazolo[5,4-b]pyridin-2-amine]
≤ 100	Cc1nc(C)c(C(C)C)c(N2CCOc3c(C)cc(-c4cnc5sc(N)nc5c4)cc3C2)n1 [Compound 104, 6-{4-[2,6-dimethyl-5-(1-methylethyl)pyrimidin-4-yl]-9-methyl-2,3,4,5-tetrahydro-1,4-benzoxazepin-7-yl}[1,3]thiazolo[5,4-b]pyridin-2-amine]
≤ 100	Cc1cc(-c2cnc3sc(N)nc3c2)cc2c1OCCN(c1nc(CC#N)nc(C)c1C(C)C)C2 [Compound 105, {4-[7-(2-amino[1,3]thiazolo[5,4-b]pyridin-6-yl)-9-methyl-2,3-dihydro-1,4-benzoxazepin-4(5H)-yl]-6-methyl-5-(1-methylethyl)pyrimidin-2-yl}acetonitrile]
≤ 100	CC(=O)Nc1ncc(-c2cc(C)c3c(c2)CN(c2nc(N)nc(C)c2C(C)C)CCO3)s1 [Compound 106, N-(5-{4-[2-amino-6-methyl-5-(1-methylethyl)pyrimidin-4-yl]-9-methyl-2,3,4,5-tetrahydro-1,4-benzoxazepin-7-yl}-1,3-thiazol-2-yl)acetamide]
≤ 100	Cc1ncc(C(C)C)c(N2CCOc3c(C)cc(-c4cnc5sc(N)nc5c4)cc3C2)n1 [Compound 107, 6-{9-methyl-4-[2-methyl-5-(1-methylethyl)pyrimidin-4-yl]-2,3,4,5-tetrahyro-1,4-benzoxazepin-7-yl}[1,3]thiazolo[5,4-b]pyridin-2-amine]
≤ 100	Cc1cc(-c2cnc3sc(N)nc3c2)cc2c1OCCN(c1ncnc(Cl)c1C(C)C)C2 [Compound 108, 6-{4-[6-chloro-5-(1-methylethyl)pyrimidin-4-yl]-9-methyl-2,3,4,5-tetrahydro-1,4-benzoxazepin-7-yl}[1,3]thiazolo[5,4-b]pyridin-2-amine]
100 to 500	CCn1cc(-c2cc(C)c3c(c2)CN(c2nc(N)nc(C)c2C(C)C)CCO3)cn1 [Compound 111, 4-[7-(1-ethyl-1H-pyrazol-4-yl)-9-methyl-2,3-dihydro-1,4-benzoxazepin-4(5H)-yl]-6-methyl-5-(1-methylethyl)pyrimidin-2-amine]
100 to 500	CNc1nc(-c2cc(C)c3c(c2)CN(c2nc(N)nc(C)c2C(C)C)CCO3)cs1 [Compound 112, 4-methyl-5-(1-methylethyl)-6-{9-methyl-7-[2-(methylamino)-1,3-thiazol-4-yl]-2,3-dihydro-1,4-benzoxazepin-4(5H)-yl}pyrimidin-2-amine]
≤ 100	CCNC(=O)c1nc(C)c(C(C)C)c(N2CCOc3c(C)cc(-c4cnc5sc(N)nc5c4)cc3C2)n1 [Compound 113, 4-[7-(2-amino[1,3]thiazolo[5,4-b]pyridin-6-yl)-9-methyl-2,3-dihydro-1,4-benzoxazepin-4(5H)-yl]-N-ethyl-6-methyl-5-(1-methylethyl)pyrimidine-2-carboxamide]
